In patent publication US9586963B2 (GENFIT, priority 2011, dated 2017) one finds EC50 and melting point data, which are given here for 13 molecules.

The target in series [1] is T1, Rev-Erb alpha (Homo sapiens, UniProt P20393).
T1 sequence (P20393 284-614 limits assumed): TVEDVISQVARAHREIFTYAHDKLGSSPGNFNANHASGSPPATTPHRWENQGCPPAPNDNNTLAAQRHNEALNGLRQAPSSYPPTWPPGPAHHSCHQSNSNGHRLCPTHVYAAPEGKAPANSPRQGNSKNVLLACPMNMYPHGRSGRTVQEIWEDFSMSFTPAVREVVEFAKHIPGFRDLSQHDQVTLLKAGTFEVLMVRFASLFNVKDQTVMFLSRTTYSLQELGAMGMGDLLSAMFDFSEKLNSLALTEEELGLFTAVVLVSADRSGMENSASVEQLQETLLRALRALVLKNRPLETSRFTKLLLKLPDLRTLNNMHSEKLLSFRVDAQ
The series can be described thus: TR-FRET (HTRF) assay of Rev-Erb alpha LBD with NCoR peptide ID1. The series is classed as biochemical. The settings on record: cell-free, Rev-Erb alpha LBD His 20 nM, NCoR ID1 30 nM. As to the method: Recombinant histidine-tagged Rev-Erb alpha ligand binding domain (LBD; SEQ ID NO: 1) and NCoR peptide ID1 (SEQ ID NO: 2) were tagged with fluorophores. Histidine-tagged Rev-Erb alpha LBD protein was set up in a one to one ratio of 20 nM of His D2 (Cis Bio International 61HSDLB). The NCoR peptide (ID1) was prepared in-house. We used a concentration of 30 nM NCoR and 10 nM Terbium-labeled streptavidin (Cis Bio International 610SATLB).
The buffer for this assay comprised PBS pH 7.2, NaH2P04 at 4 g/L, Na2HP04 at 27 g/L and NaCl at 9 g/l in deionized water. Before using the buffer in the assay, a mixture comprising 1 mM of DTT, 2 mM of CHAPS, 1 mM of EDTA and 0.1% BSA fatty acid free was added to the appropriate amount of buffer. The protein mixture comprising recombinant Rev-Erb alpha LBD His (20 nM), the NCoR ID1 (30 nM) and their respective fluorophores were added to each well of a 384-well plate in a volume 18 μl. The compounds to analyze were diluted in PBS 10% DMSO and was added in a volume of 2 μL in a well. The final mixture volume was 20 μL and the mixture was allowed equilibrate for 2 hours at room temperature. Fluorescence intensity was then counted on the TECAN Genios Pro as a ratio of the fluorescence measured at 665 nm and that measured at 620 nm obtained in the absence of the compound (buffer only) or with the compound. Four experiments were carried out for each compound.
Each compound has been tested at 6 different concentrations to depict a dose-effect enabling the measure of biochemical parameters such as EC50 and TOP activation (%).
The Homogenous Time Resolved Fluorescence (HTRF) assay allows studying the ability of compounds according to the invention to activate Rev-Erb alpha and thus modulate the interaction with its corepressor. The molecular interactions between these bio-molecules are assessed in a cell-free assay by coupling each partner with a fluorescent label and detecting the level of energy transfer. This energy transfer occurs when the distance between the donor (SA Terbium complex) and the acceptor (D2) is small enough.
The ability of compounds according to the invention of activating Rev-Erb alpha was assessed in the described acellular assay. EC50 and TOP activation were measured.
(Time-resolved FRET reads energy transfer from a long-lived donor to a nearby acceptor.)

The target of series [2] is T1, Rev-Erb alpha. The series can be described thus: M2H (mammalian two-hybrid) cellular activation assay of Rev-Erb alpha. The series is classed as cell-based. The settings on record: M2H assay, HEK293 cells, Gal4-Rev-Erb alpha / VP16-NCoR, luciferase reporter. In outline: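 Six-point dose-response, 18 h, 37 °C, serum-free, in HEK293 cells carrying a Gal4-RE luciferase reporter with Gal4-Rev-Erb alpha or beta plus VP16-NCoR (corepressor interaction readout). EC50 and TOP activation (%) derived from luminescence across four experiments.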
On the technique in general: A reporter such as luciferase makes a cellular process visible.

Broadly, the EC50 is the concentration at which the effect is half-maximal. A low value points to an effect from little substance. Broadly, the melting point is the temperature, or range, at which the solid turns liquid.

As to `O=C(c1ccccc1)c1cccc(Oc2ccc3nnc(Cl)n3n2)c1` [Cpd.3-2, (3-(3-chloro-[1,2,4]triazolo[4,3-b]pyridazin-6-yloxy)phenyl)(phenyl)methanone], the melting point was found to be 148 °C. Moreover, the EC50 in series [1] was below 100 nM. For the same molecule, in series [2], the EC50 lay within 100 to 1000 nM.
Taken in the same sequence, the figures for `Clc1nnc2ccc(Oc3ccccc3Cc3ccccc3)nn12` [Cpd.4-4, 6-(2-benzylphenoxy)-3-chloro-[1,2,4]triazolo[4,3-b]pyridazine] were 113.7 °C, 100 to 1000 nM and 100 to 1000 nM.
`O=C(c1ccccc1)c1ccccc1Oc1ccc2nnc(Cl)n2n1` [Cpd.4-11, (2-(3-chloro-[1,2,4]triazolo[4,3-b]pyridazin-6-yloxy)phenyl)(phenyl)methanone] had a melting point of 137.9 °C. In series [1], this molecule showed an EC50 of 1100 to 6000 nM. Moreover, in series [2], the EC50 was in the range of 1000 to 6000 nM.
Take `Clc1nnc2ccc(Cc3ccccc3-c3ccccc3)nn12` [Cpd.4-9, 6-(biphenyl-2-ylmethyl)-3-chloro-[1,2,4]triazolo[4,3-b]pyridazine]: the EC50 in series [1] is 100 to 1000 nM; in series [2], 1000 to 6000 nM.
Regarding `Fc1ccc(-c2ccccc2)c(Oc2ccc3nnc(Cl)n3n2)c1` [Cpd.4-7, 6-(4-fluoro-biphenyl-2-yloxy)-3-chloro-[1,2,4]triazolo[4,3-b]pyridazine], the melting point worked out at 180.7 °C. Also, the EC50 in series [1] was below 100 nM. In series [2], this molecule returned an EC50 of 100 to 1000 nM.
Taken in the same sequence, the figures for `O=C(c1ccccc1)c1cccc(Oc2ccc3nnc(C(F)(F)F)n3n2)c1` [Cpd.3-4, (3-(3-(trifluoromethyl)-[1,2,4]triazolo[4,3-b]pyridazin-6-yloxy)phenyl)(phenyl)methanone] were 94.4 °C, 100 to 1000 nM and 100 to 1000 nM.
With `Clc1nnc2ccc(Oc3ccccc3-c3ccccc3)nn12` [Cpd.4-1, 6-(biphenyl-2-yloxy)-3-chloro-[1,2,4]triazolo[4,3-b]pyridazine], the melting point was 163 °C. This molecule also displayed an EC50 in series [1] of 1100 to 6000 nM. The molecule also returned an EC50 in series [2] below 100 nM.
Turning to `FC(F)(F)c1nnc2ccc(Oc3cccc(Cc4ccccc4)c3)nn12` [Cpd.3-5, 6-(3-benzylphenoxy)-3-(trifluoromethyl)-[1,2,4]triazolo[4,3-b]pyridazine], the melting point turned out to be 115 °C. The EC50 in series [1] fell in the range of 100 to 1000 nM. Besides, the EC50 in series [2] is 100 to 1000 nM.
On to `FC(F)(F)c1nnc2ccc(Cc3ccccc3-c3ccccc3)nn12` [Cpd.4-12, 6-(biphenyl-2-ylmethyl)-3-(trifluoromethyl)-[1,2,4]triazolo[4,3-b]pyridazine], for which the melting point was 117.4 °C. For the same molecule, in series [1], the EC50 was in the range of 1100 to 6000 nM. In addition, in series [2], the EC50 is 1000 to 6000 nM.
Taken in the same sequence, the figures for `Fc1cccc(-c2ccccc2Oc2ccc3nnc(Cl)n3n2)c1` [Cpd.4-3, 6-(3′-fluoro-biphenyl-2-yloxy)-3-chloro-[1,2,4]triazolo[4,3-b]pyridazine] were 97.3 °C, below 100 nM and 100 to 1000 nM.
For the molecule `Clc1nnc2ccc(Oc3cccc(-c4ccccc4)c3)nn12` [Cpd.3-1, 6-(biphenyl-3-yloxy)-3-chloro-[1,2,4]triazolo[4,3-b]pyridazine], the EC50 in series [1] and in series [2] was 100 to 1000 nM throughout.
Molecule `Oc1ccc(Oc2ccc3nnc(Cl)n3n2)c(-c2ccccc2)c1` [Cpd.4-32, 6-(5-hydroxy-biphenyl-2-yloxy)-3-chloro-[1,2,4]triazolo[4,3-b]pyridazine] showed a melting point of 267.7 °C. The molecule also yielded an EC50 in series [2] of 1000 to 6000 nM.
As for `Cc1ccc(-c2ccc(C(F)(F)F)cc2Oc2ccc3nnc(Cl)n3n2)cn1` [Cpd.4-196, 3-chloro-6-(2-(6-methylpyridin-3-yl)-5-(trifluoromethyl)phenoxy)-[1,2,4]triazolo[4,3-b]pyridazine], the melting point fell in the range of 212 to 214 °C. For the same molecule, the EC50 in series [2] lay in the range of 1000 to 6000 nM.
